Kd data for 57 molecules are collected here from patent publication US11459335B2, “N/O-linked Degrons and Degronimers for protein degradation” (C4 Therapeutics, Inc., priority 2017, dated 2022).

Chain of CRBN-DDB1 (Q96SW2 whole entry): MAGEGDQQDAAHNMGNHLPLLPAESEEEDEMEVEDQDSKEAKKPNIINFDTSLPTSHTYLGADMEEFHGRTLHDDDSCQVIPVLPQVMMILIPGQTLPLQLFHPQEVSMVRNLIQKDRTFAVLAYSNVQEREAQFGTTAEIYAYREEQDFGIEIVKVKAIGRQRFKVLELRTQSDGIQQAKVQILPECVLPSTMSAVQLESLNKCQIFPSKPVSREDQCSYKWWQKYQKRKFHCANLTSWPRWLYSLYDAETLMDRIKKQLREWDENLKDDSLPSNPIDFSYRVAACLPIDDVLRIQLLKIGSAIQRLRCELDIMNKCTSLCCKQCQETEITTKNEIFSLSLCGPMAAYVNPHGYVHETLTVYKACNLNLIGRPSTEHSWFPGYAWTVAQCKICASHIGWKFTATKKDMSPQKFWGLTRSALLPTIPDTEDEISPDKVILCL
Chain of CRBN-DDB1 (Q16531 whole entry partner): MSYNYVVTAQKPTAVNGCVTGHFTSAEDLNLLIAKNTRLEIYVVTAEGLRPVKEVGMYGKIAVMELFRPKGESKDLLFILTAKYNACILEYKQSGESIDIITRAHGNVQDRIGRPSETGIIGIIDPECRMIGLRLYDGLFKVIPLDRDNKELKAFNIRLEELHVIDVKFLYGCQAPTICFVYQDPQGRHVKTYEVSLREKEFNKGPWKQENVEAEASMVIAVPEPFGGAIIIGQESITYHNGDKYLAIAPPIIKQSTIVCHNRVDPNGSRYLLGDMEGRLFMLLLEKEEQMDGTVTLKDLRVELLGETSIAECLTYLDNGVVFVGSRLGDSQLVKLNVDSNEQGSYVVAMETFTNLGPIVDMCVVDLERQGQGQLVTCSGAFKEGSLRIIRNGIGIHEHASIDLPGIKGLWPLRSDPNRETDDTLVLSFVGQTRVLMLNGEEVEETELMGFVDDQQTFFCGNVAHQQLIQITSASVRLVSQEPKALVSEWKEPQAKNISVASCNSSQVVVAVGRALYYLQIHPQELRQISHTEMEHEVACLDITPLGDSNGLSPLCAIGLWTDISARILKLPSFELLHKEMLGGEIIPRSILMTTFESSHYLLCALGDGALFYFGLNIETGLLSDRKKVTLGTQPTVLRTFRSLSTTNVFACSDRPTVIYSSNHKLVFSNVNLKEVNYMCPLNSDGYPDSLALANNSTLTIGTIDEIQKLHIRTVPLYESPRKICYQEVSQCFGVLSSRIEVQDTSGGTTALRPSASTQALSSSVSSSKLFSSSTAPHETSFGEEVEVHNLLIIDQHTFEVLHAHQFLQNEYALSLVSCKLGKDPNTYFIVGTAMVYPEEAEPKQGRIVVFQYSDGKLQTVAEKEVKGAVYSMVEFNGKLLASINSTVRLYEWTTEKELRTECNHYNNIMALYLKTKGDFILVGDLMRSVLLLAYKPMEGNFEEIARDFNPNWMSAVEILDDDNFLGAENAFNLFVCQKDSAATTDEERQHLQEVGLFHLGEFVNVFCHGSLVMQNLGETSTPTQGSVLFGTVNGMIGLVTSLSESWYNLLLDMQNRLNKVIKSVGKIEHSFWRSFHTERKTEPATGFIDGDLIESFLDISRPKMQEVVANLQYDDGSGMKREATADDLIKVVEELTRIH

One test has as its target CRBN-DDB1 (Homo sapiens (Human), UniProt Q96SW2). Put plainly: Fluorescence polarization (FP) assay for compound ligand binding to CRBN-DDB1. To be noted: FP displacement of (−)-Thalidomide-Alexa Fluor or Pomalidomide-fluorescein probe (5 nM), 400 nM CRBN-DDB1, 60 min room temperature; Additional Compounds of the Present Invention. The procedure:
Measuring compound ligand binding to CRBN-DDB1 was carried out using an established sensitive and quantitative in vitro fluorescence polarization (FP) based binding assay. […] Compounds were dispensed from serially diluted DMSO stock into black 384-well compatible fluorescence polarization plates using an Echo acoustic dispenser. Compound binding to CRBN-DDB1 was measured by displacement of either a (−)-Thalidomide-Alexa Fluor® or Pornalidomide-fluorescein conjugated probe dye. […] Matching control wells excluding CRBN-DDB1 were used to correct for background fluorescence. Plates were read on an Envision plate reader with appropriate FP filter sets. The corrected S (perpendicular) and P (parallel) values were used to calculate fluorescence polarization (FP) with the following equation: FP=1000*(S−G*P)/(S+G*P).
A general note: Fluorescence polarisation rises when a labelled molecule tumbles more slowly, as on binding a larger partner.
The Kd is the constant that tells how readily two partners part at equilibrium. A high value points to weaker binding. For `O=C1CCC(Nc2ccc(N3CCNCC3)nc2)C(=O)N1` (stereo not drawn) [Compound 158, 3-(6-Piperazin-1-yl-pyridin-3-ylamino)-piperidine-2,6-dione], the Kd was 10 to 50 µM.
The molecule `Cn1cnc2cc(OC3CCC(=O)NC3=O)ccc21` (stereo not drawn) [Compound 142] gave a Kd of 10 to 50 µM.
Regarding `O=C1CC[C@@H](O[C@H]2CCN(c3ccccc3)C2=O)C(=O)N1` (single isomer, unassigned) [Compound 161, 3-(2-Oxo-1-phenyl-pyrrolidin-3-yloxy)-piperidine-2,6-dione], the Kd is 50 to 100 µM.
`Cc1ccn(-c2ccc(OC3CCC(=O)NC3=O)cc2)n1` (stereo not drawn) [Compound 143]: the dissociation constant Kd was in the range of 10 to 50 µM.
As for `O=C1CCC(Oc2ccccc2)C(=O)N1` (stereo not drawn) [Compound 129], the dissociation constant Kd was in the range of 10 to 50 µM.
For the molecule `O=C1CCC(Nc2ccc3cccnc3c2)C(=O)N1` (stereo not drawn) [Compound 163], the Kd is 10 to 50 µM.
The molecule `COC(=O)c1ccccc1OC1CCC(=O)NC1=O` (stereo not drawn) [Compound 155] displayed a Kd of 50 to 100 µM.
The same measure, in the same setting: then `Cn1nc(NC2CCC(=O)NC2=O)cc1-c1ccccc1` (stereo not drawn) [Compound 157, 3-(1-Methyl-5-phenyl-1H-pyrazol-3-ylamino)-piperidine-2,6-dione], with 10 to 50 µM; and `CC(C)(C)OC(=O)N1CCN(c2ccc(NC3CCC(=O)NC3=O)cn2)CC1` (stereo not drawn) [Compound 156, 4-[5-(2,6-Dioxo-piperidin-3-ylamino)-pyridin-2-yl]-piperazine-1-carboxylic Acid tert-butyl Ester], with 10 to 50 µM; and `CS(=O)(=O)c1cccc(OC2CCC(=O)NC2=O)c1` (stereo not drawn) [Compound 144], with 10 to 50 µM.
On to `O=C1CC[C@H](O[C@H]2CCN(c3ccccc3)C2=O)C(=O)N1` (single isomer, unassigned) [Compound 162, 3-(2-Oxo-1-phenyl-pyrrolidin-3-yloxy)-piperidine-2,6-dione], for which the equilibrium dissociation constant (Kd) was 10 to 50 µM.
`CN1CCN(c2ccc(OC3CCC(=O)NC3=O)cc2)CC1` (stereo not drawn) [Compound 130] gave a Kd of 10 to 50 µM.
The molecule `CC(=O)c1ccccc1OC1CCC(=O)NC1=O` (stereo not drawn) [Compound 153] displayed a dissociation constant (Kd) of 50 to 100 µM.
As to `CC(=O)c1cc(C)ccc1OC1CCC(=O)NC1=O` (stereo not drawn) [Compound 146], the Kd is 50 to 100 µM.
For `CC(C)(C)OC(=O)N1CCN(c2ccc(COC3CCC(=O)NC3=O)cc2)CC1` (stereo not drawn) [Compound 131, 4-[4-(2,6-Dioxo-piperidin-3-yloxymethyl)-phenyl]-piperazine-1-carboxylic Acid tert-butyl Ester], the dissociation constant (Kd) lay in the range of 10 to 50 µM.

The same test, now with this note: FP displacement of (−)-Thalidomide-Alexa Fluor or Pomalidomide-fluorescein probe (5 nM), 400 nM CRBN-DDB1, 60 min room temperature; Degrons, Compounds of the Present Invention.
Take `CN(c1ccc(F)cc1F)C1CCC(=O)NC1=O` (stereo not drawn) [Compound 2]: the dissociation constant (Kd) is 50 to 100 µM.
`COc1ccc(N(C)C2CCC(=O)NC2=O)c(OC)c1` (stereo not drawn) [Compound 69] had a Kd of 10 to 50 µM.
The same measure, in the same setting: then `CN(CC(=O)Nc1ccccc1)C1CCC(=O)NC1=O` (stereo not drawn) [Compound 108], with 10 to 50 µM; and `CN(c1ccc(F)cc1)C1CCC(=O)NC1=O` (stereo not drawn) [Compound 17], with 10 to 50 µM.
As to `O=C1CCC(Nc2ccc(F)cc2)C(=O)N1` (stereo not drawn) [Compound 8], the equilibrium dissociation constant (Kd) was in the range of 10 to 50 µM.
Still for that read-out and setting: then `CN(C1CN(c2ccccc2)C1)C1CCC(=O)NC1=O` (stereo not drawn) [Compound 103], with 10 to 50 µM.
Molecule `O=C1CCC(Nc2cccc(CN3CCCCC3)c2)C(=O)N1` (stereo not drawn) [Compound 72] displayed a Kd of 10 to 50 µM.
The molecule `CN(CC(N)=O)C1CCC(=O)NC1=O` (stereo not drawn) [Compound 110] came in with a Kd of 10 to 50 µM.
Same read-out and setting: then `O=C1CCC(Nc2ccccc2N2CCOCC2)C(=O)N1` (stereo not drawn) [Compound 14], with 10 to 50 µM; and `CN1Cc2ccc(NC3CCC(=O)NC3=O)cc2C1=O` (stereo not drawn) [Compound 93], with 50 to 100 µM.
In the case of `CN1CC(N(C)C2CCC(=O)NC2=O)CC1=O` (stereo not drawn) [Compound 104], the equilibrium dissociation constant (Kd) was 50 to 100 µM.
`NCc1cccc(NC2CCC(=O)NC2=O)c1` (stereo not drawn) [Compound 91] returned an equilibrium dissociation constant (Kd) of 10 to 50 µM.
As for `O=C1CCC(Nc2ccc(N3CCNCC3)cc2)C(=O)N1` (stereo not drawn) [Compound 89], the dissociation constant Kd was 10 to 50 µM.
Same read-out and setting: then `Cn1cnc2cc(NC3CCC(=O)NC3=O)ccc21` (stereo not drawn) [Compound 78], with 10 to 50 µM; and `O=C1CCC(Nc2cc(C(=O)N3CCCC3)ccn2)C(=O)N1` (stereo not drawn) [Compound 119], with 50 to 100 µM; and `CN1CCc2ccc(NC3CCC(=O)NC3=O)cc2C1=O` (stereo not drawn) [Compound 76], with 10 to 50 µM.
`O=C1CCC(Nc2ccn(-c3ccccc3)n2)C(=O)N1` (stereo not drawn) [Compound 114] came in with an equilibrium dissociation constant (Kd) of 10 to 50 µM.
`CN(C1CC(=O)N(c2ccccc2)C1)C1CCC(=O)NC1=O` (stereo not drawn) [Compound 105]: the Kd is 50 to 100 µM.
`O=C1CCC(Nc2ccc3ccccc3n2)C(=O)N1` (stereo not drawn) [Compound 120] came in with an equilibrium dissociation constant (Kd) of 10 to 50 µM.
The same measure, in the same setting: then `O=C1CCC(Nc2cccnc2)C(=O)N1` (stereo not drawn) [Compound 80], with 10 to 50 µM.
`O=C1CCC(Nc2ccccc2)C(=O)N1` (stereo not drawn) [Compound 125] displayed a dissociation constant (Kd) of 10 to 50 µM.
`COc1ccc(C(C)(C)C)cc1NC1CCC(=O)NC1=O` (stereo not drawn) [Compound 25] showed a dissociation constant Kd of 50 to 100 µM.
`O=C1CCC(Nc2c(F)cccc2F)C(=O)N1` (stereo not drawn) [Compound 63] registered a Kd of 10 to 50 µM.
In turn, `CC(C)(C)OC(=O)N1CCC(n2cc(NC3CCC(=O)NC3=O)cn2)CC1` (stereo not drawn) [Compound 73] came in with a Kd of 50 to 100 µM.
On to `O=C1CCC(Nc2cnn(C3CCNCC3)c2)C(=O)N1` (stereo not drawn) [Compound 94], for which the equilibrium dissociation constant (Kd) was 10 to 50 µM.
For the molecule `CC(C)(C)OC(=O)N1Cc2cnc(NC3CCC(=O)NC3=O)nc2C1` (stereo not drawn) [Compound 117], the dissociation constant Kd lay in the range of 50 to 100 µM.
`CN(C1CN(C(=O)OC(C)(C)C)C1)C1CCC(=O)NC1=O` (stereo not drawn) [Compound 98] registered a Kd of 50 to 100 µM.
`COc1ccc(C(F)(F)F)cc1NC1CCC(=O)NC1=O` (stereo not drawn) [Compound 24] displayed a Kd of 10 to 50 µM.
Regarding `O=C1CCC(Nc2cccnc2)C(=O)N1` (stereo not drawn) [Compound 115], the Kd is 10 to 50 µM.
The molecule `Cc1cnc(NC2CCC(=O)NC2=O)cn1` (stereo not drawn) [Compound 124] had a Kd of 10 to 50 µM.
On to `O=C1CCC(Nc2cnn(-c3ccccc3)c2)C(=O)N1` (stereo not drawn) [Compound 75], for which the equilibrium dissociation constant (Kd) fell in the range of 10 to 50 µM.
`CC(C)(C)OC(=O)N1CCN(c2nccc(NC3CCC(=O)NC3=O)n2)CC1` (stereo not drawn) [Compound 121] yielded a dissociation constant Kd of 50 to 100 µM.
Still for that read-out and setting: then `COc1cc(OC)nc(NC2CCC(=O)NC2=O)n1` (stereo not drawn) [Compound 113], with 50 to 100 µM; and `CC(C)(C)OC(=O)N1CCC(c2ccc(NC3CCC(=O)NC3=O)nc2)CC1` (stereo not drawn) [Compound 123], with 10 to 50 µM; and `O=C1CCC(Nc2ccccc2OC(F)(F)F)C(=O)N1` (stereo not drawn) [Compound 21], with 10 to 50 µM.
With `O=C1CCC(Nc2ccccc2CN2CCCC2)C(=O)N1` (stereo not drawn) [Compound 71], the Kd lay within 10 to 50 µM.
In turn, `CN(c1cccc(N2CCNCC2)c1)C1CCC(=O)NC1=O` (stereo not drawn) [Compound 87] showed a Kd of 10 to 50 µM.
`NCc1ccc(NC2CCC(=O)NC2=O)cc1` (stereo not drawn) [Compound 90]: the Kd lay within 10 to 50 µM.
`O=C1CCC(Nc2ccc(C3CCNCC3)cn2)C(=O)N1` (stereo not drawn) [Compound 84] came in with a Kd of 10 to 50 µM.
Still for that read-out and setting: then `Cn1cnc2c(NC3CCC(=O)NC3=O)cccc21` (stereo not drawn) [Compound 74], with 10 to 50 µM; and `Cn1nc(NC2CCC(=O)NC2=O)c2ccccc21` (stereo not drawn) [Compound 116], with 10 to 50 µM; and `O=C1CCC(Nc2ccc3c(c2)CCNC3)C(=O)N1` (stereo not drawn) [Compound 83], with 10 to 50 µM.
